Source: ChEMBL document CHEMBL1128820, “Synthesis and evaluation of nitro 5-deazaflavins as novel bioreductive antitumor agents” (Bioorg Med Chem Lett, 1995)

How the values were obtained:
Type in all cases: functional, cell-based
[1] = tested on: L1210; assay: In vitro antitumor activity against murine lymphoma L1210 cells by MTT assay.; settings: Mus musculus
[2] = tested on: KB; assay: In vitro antitumor activity against human epidermoid carcinoma KB cells by MTT assay.
[3] = tested on: L1210; assay: In vitro antitumor activity against murine lymphoma L1210 cells by using MTT assay; No significant cytotoxicity; settings: Mus musculus
[4] = tested on: KB; assay: In vitro antitumor activity against human epidermoid carcinoma KB cells by using MTT assay; No significant cytotoxicity

Structure (SMILES) | IC50 [1] [µM] | IC50 [2] [µM] | IC50 [3] [µM] | IC50 [4] [µM]
CCCCCCCCCCCCn1c2nc(=O)n(C)c(=O)c-2cc2cc([N+](=O)[O-])ccc21 | 21.6 | 15.8 |  | 
CCCCCCCCn1c2nc(=O)n(-c3ccccc3)c(=O)c-2cc2cccnc21 |  |  | > 200 | > 200
CO[C@@]12[C@H](COC(N)=O)C3=C(C(=O)C(C)=C(N)C3=O)N1C[C@@H]1N[C@@H]12 [MITOMYCIN] | 0.6 | 0.4 |  | 
CCCCCCCCn1c2nc(=O)n(CC(=O)OCC)c(=O)c-2cc2ccc([N+](=O)[O-])cc21 | 8.4 | 7.6 |  | 
CCCCCCCCCCCCn1c2nc(=O)[nH]c(=O)c-2cc2cc([N+](=O)[O-])ccc21 | 6.8 | 26.4 |  | 
CCCCCCCCCCCCn1c2nc(=O)n(C)c(=O)c-2cc2ccc([N+](=O)[O-])cc21 | 5.2 | 8 |  | 
CCCCCCCCn1c2nc(=O)n(CC(=O)OCC)c(=O)c-2cc2cccc([N+](=O)[O-])c21 | 4 | 3.6 |  | 
CCCCCCCCn1c2nc(=O)n(-c3ccccc3)c(=O)c-2cc2ccccc21 |  |  | > 200 | > 200
CCCCCCCCCCCCn1c2nc(=O)[nH]c(=O)c-2cc2cc(C(F)(F)F)ccc21 |  |  | > 200 | > 200
CCCCCCCCn1c2nc(=O)n(CC(=O)OCC)c(=O)c-2cc2ccccc21 |  |  | > 200 | > 200
CCCCCCCCn1c2nc(=O)n(-c3ccccc3)c(=O)c-2cc2ccc([N+](=O)[O-])cc21 | 2.6 | 12.4 |  | 
CCCCCCCCCCCCn1c2nc(=O)[nH]c(=O)c-2cc2ccccc21 |  |  | > 200 | > 200
CCCCCCCCCCCCn1c2nc(=O)n(C)c(=O)c-2cc2cccc([N+](=O)[O-])c21 | 7.8 | 20 |  | 
CCCCCCCCCCCCn1c2nc(=O)n(C)c(=O)c-2cc2cccnc21 |  |  | > 200 | > 200
CCCCCCCCCCCCn1c2nc(=O)n(C)c(=O)c-2cc2ncccc21 |  |  | > 200 | > 200
CCCCCCCCn1c2nc(=O)n(-c3ccccc3)c(=O)c-2cc2ncccc21 |  |  | > 200 | > 200
CCCCCCCCn1c2nc(=O)n(-c3ccccc3)c(=O)c-2cc2c([N+](=O)[O-])cccc21 | 2.6 | 8.4 |  | 
CCCCCCCCn1c2nc(=O)n(-c3ccccc3)c(=O)c-2cc2cc([N+](=O)[O-])ccc21 | 9.6 | 7.6 |  | 
CCCCCCCCn1c2nc(=O)n(-c3ccccc3)c(=O)c-2cc2cccc([N+](=O)[O-])c21 | 1.5 | 6 |  | 
CCCCCCCCCCCCn1c2nc(=O)[nH]c(=O)c-2cc2cccc([N+](=O)[O-])c21 | 1.8 | 2.6 |  | 
CCCCCCCCCCCCn1c2nc(=O)[nH]c(=O)c-2cc2c([N+](=O)[O-])cccc21 | 0.4 | 3.2 |  | 
CCCCCCCCn1c2nc(=O)n(CC(=O)OCC)c(=O)c-2cc2c([N+](=O)[O-])cccc21 | 3 | 7.6 |  | 
CCCCCCCCn1c2nc(=O)n(CC(=O)OCC)c(=O)c-2cc2cc([N+](=O)[O-])ccc21 | 12 | 30 |  | 
CCCCCCCCCCCCn1c2nc(=O)n(C)c(=O)c-2cc2ccccc21 |  |  | > 200 | > 200
CCCCCCCCCCCCn1c2nc(=O)n(C)c(=O)c-2cc2c([N+](=O)[O-])cccc21 | 1.6 | 6.8 |  | 
CCCCCCCCCCCCn1c2nc(=O)[nH]c(=O)c-2cc2ccc([N+](=O)[O-])cc21 | 2.5 | 12.8 |  | 
CCCCCCCCCCCCn1c2nc(=O)[nH]c(=O)c-2cc2ccc(C(F)(F)F)cc21 |  |  | > 200 | > 200
